# Laboratory results from patent US10519150B2, “Salts of morpholine derivative, crystal forms thereof, processes for producing the same, pharmaceutical compositions including the same, and use thereof” (SHANGHAI PHARMACEUTICALS HOLDING CO., LTD., priority 2015, dated 2019).
# “Also recorded” adds a separate entry of the source. Structures can show the parent of a compound that is named as a salt.
# Legend:
# [1] = Solubility test in pure water; type: physicochemical; settings: for Solubility: pure water, 25° C., 5 mg sample; for water solubility: summary statement in description
# Description: 5 mg of each of the free base and salts of the morpholine derivative in Examples 1-7 was added with pure water gradually at 25° C., until all the samples were completely dissolved. The solubility of each sample was calculated based on the actual weight of the sample and the amount of water.
# [2] = Hygroscopicity test (weight change as humidity increased from 20% to 80%); type: physicochemical; settings: for Weight change in 20%-80% humidity: 5 mg sample, humidity increased from 20% to 80%; for Level (hygroscopicity): 20%-80% humidity
# Description: 5 mg of each of the salts of the morpholine derivative in the examples was measured for their weight change as the humidity was increased from 20% to 80%.
# [3] = Dynamic Vapor Sorption Analysis (DVS); type: physicochemical; settings: for hygroscopicity in words: text statement
# Description: Dynamic Vapor Sorption Analysis (DVS) data was taken from a TA Instruments Q5000 TGA, instrument control software was Thermal Advantage, and analysis software was Universal Analysis. Generally, 1 to 10 mg of the sample was placed in a platinum crucible, the TA software generally recorded the weight change of the sample as the relative humidity changed from 0% to 80% to 0%. According to the specific conditions of the sample, different adsorption and desorption steps might also be applied to the sample.
# [4] = Stability test under oxidation condition; type: physicochemical; settings: for Types of new impurities (type) / The decomposed amount (%): closed container with hydrogen peroxide urea, 40° C., 12 days; for The decomposed amount (%): chiral HPLC vs day 0; for stability under oxidation condition in words: text statement
# Description: The stability test was conducted on 10 mg of each of the free base and salts of the morpholine derivative in the examples under oxidation condition.
# [5] = Stability test under light condition; type: physicochemical; settings: for The decomposed amount (%): light box 4500 Lx ± 500 Lx, 25° C., 12 days, chiral HPLC vs day 0; for stability under light condition in words: text statement
# Description: The stability test was carried out on 10 mg of each of the free base, salts of the morpholine derivative in Examples 1-6 under light condition.
# [6] = background statement on prior-art free base; cited from earlier work
# [7] = background statement on prior-art free base; cited from earlier work; remark: listed apart in the source
compound,measurement,setting,value
COC(=O)NCCCn1nc([C@@H](C)N(C(=O)[C@H]2CNCCO2)C2CC2)c2ccc(C)nc21 [morpholine derivative tartrate dihydrate],Solubility,[1],100 mg/mL
same,Weight change in 20%-80% humidity,[2],9.05%
same,Level (hygroscopicity),[2],easy
same,DVS weight change in a range of 0%-80% humidity,[3]; 0%-80% humidity,about 11.06%
same,hygroscopicity in words,[3],relatively hydroscopic
COC(=O)NCCCn1nc([C@@H](C)N(C(=O)[C@H]2CNCCO2)C2CC2)c2ccc(C)nc21 [morpholine derivative naphthalene disulfonate],Solubility,[1],>500 mg/mL
same,water solubility,[1],> 500 mg/mL
same,Level (hygroscopicity),[2],Very easy
same,Types of new impurities (type),[4],7 type
same,The decomposed amount (%),[4],51.47%
same,The decomposed amount (%),[5],12.58%
same,stability under light condition in words,[5],good thermal stability
same,hygroscopicity in words,[3],very hydroscopic
COC(=O)NCCCn1nc([C@@H](C)N(C(=O)[C@H]2CNCCO2)C2CC2)c2ccc(C)nc21 [morpholine derivative acetate],Solubility,[1],150 to 300 mg/mL
same,water solubility,[1],150 to 300 mg/mL
same,Weight change in 20%-80% humidity,[2],21.30%
same,Types of new impurities (type),[4],5 type
same,The decomposed amount (%),[4],95.71%
same,stability under light condition in words,[5],good thermal stability
same,DVS weight loss during the drying stage,[3]; 0% of the initial humidity,about 5%
same,"DVS moisture absorbed, amount of its weight",[3]; 20% to 60% humidity,6.4%
same,"DVS moisture absorbed, amount of its weight",[3]; 90% of humidity,40%
same,hygroscopicity in words,[3],deliquesced
COC(=O)NCCCn1nc([C@@H](C)N(C(=O)[C@H]2CNCCO2)C2CC2)c2ccc(C)nc21 [morpholine derivative hydrochloride],Solubility,[1],>500 mg/mL
same,water solubility,[1],> 500 mg/mL
same,Weight change in 20%-80% humidity,[2],31.80%
same,Level (hygroscopicity),[2],Very easy
same,Types of new impurities (type),[4],6 type
same,The decomposed amount (%),[4],63.53%
same,The decomposed amount (%),[5],5.27%
same,stability under light condition in words,[5],good thermal stability
same,DVS water absorbed in 0% to 60% RH,[3]; 0% to 60% RH,15%
same,hygroscopicity in words,[3],deliquescent; also recorded: very hydroscopic
COC(=O)NCCCn1nc([C@@H](C)N(C(=O)[C@H]2CNCCO2)C2CC2)c2ccc(C)nc21 [morpholine derivative malate],Solubility,[1],100 mg/mL
same,water solubility,[1],~100 mg/mL
same,Weight change in 20%-80% humidity,[2],1.70%
same,Types of new impurities (type),[4],2 type
same,The decomposed amount (%),[4],8.46%
same,stability under oxidation condition in words,[4],better stability
same,The decomposed amount (%),[5],2.05%
same,stability under light condition in words,[5],better stability
same,DVS weight change in a range of 20%-80% humidity,[3],about 1.2%
COC(=O)NCCCn1nc([C@@H](C)N(C(=O)[C@H]2CNCCO2)C2CC2)c2ccc(C)nc21 [morpholine derivative tartrate],water solubility,[1],50 to 300 mg/mL
COC(=O)NCCCn1nc([C@@H](C)N(C(=O)[C@H]2CNCCO2)C2CC2)c2ccc(C)nc21 [morpholine derivative tartrate crystal form B],Solubility,[1],150 to 300 mg/mL
same,Weight change in 20%-80% humidity,[2],6.58%
same,Level (hygroscopicity),[2],easy
same,Types of new impurities (type),[4],4 type
same,The decomposed amount (%),[4],3.24%
same,stability under oxidation condition in words,[4]; listed as crystal form B,more stable than crystal form A
same,The decomposed amount (%),[5],3.61%
same,stability under light condition in words,[5]; listed as crystal form B,equivalent stability
same,DVS weight change in a range of 20%-80% humidity,[3],about 7%
same,hygroscopicity in words,[3],relatively hydroscopic
same,hygroscopicity in words,[3]; listed as crystal form B,relatively hydroscopic
COC(=O)NCCCn1nc([C@@H](C)N(C(=O)[C@H]2CNCCO2)C2CC2)c2ccc(C)nc21 [morpholine derivative tartrate crystal form A],Solubility,[1],100 mg/mL
same,Weight change in 20%-80% humidity,[2],1.50%
same,Level (hygroscopicity),[2],difficult
same,Types of new impurities (type),[4],6 type
same,The decomposed amount (%),[4],17.93%
same,The decomposed amount (%),[5],2.14%
same,stability under light condition in words,[5]; listed as crystal form A,equivalent stability
same,DVS weight change in a range of 20%-80% humidity,[3],about 1.5%
same,hygroscopicity in words,[3],hardly hydroscopic
same,hygroscopicity in words,[3]; listed as crystal form A,hardly hydroscopic
"COC(=O)NCCCn1nc([C@@H](C)N(C(=O)[C@H]2CNCCO2)C2CC2)c2ccc(C)nc21 [morpholine derivative free base, methyl (3-(3-((R)-1-((R)—N-cyclopropylmorpholine-2-carboxamido)ethyl)-6-methyl-1H-pyrazolo[3,4-b]pyridin-1-yl)n-propyl)carbamate, reference compound]",Solubility,[1],5 to 10 mg/mL
same,Level (hygroscopicity),[2],difficult
same,Types of new impurities (type),[4],6 type
same,The decomposed amount (%),[4],38.0%
same,The decomposed amount (%),[5],100%
same,water solubility in words,[6],poor water solubility
same,oxidation stability in words,[7],relatively easy to be oxidized
